According to PubChem BioAssay AID1963424 (Molecular Pharmacology Branch, DTP, NCI, 2024):

System: 327498-153-R-J2-PDC complex spheroid growth, % test/control
Test: Anticancer human tumor 327498-153-R-J2-PDC patient-derived uterine carcinosarcoma cell line growth inhibition [Asc]
Conditions: for IC50: curve of first compound; for viability, T/C: stronger effect = lower value
How it was run: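 Tumor cells were grown as complex spheroids with human endothelial cells (HUVEC) and human mesenchymal stem cells as stroma. Agents were tested alone and in combination, in half-log steps down from the clinical Cmax, or from 10 microM where Cmax was unknown.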
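Further: spheroids exposed to compound for 7 days after 3 days of growth.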
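Wherever viability, T/C is given: 100% = DMSO vehicle control wells.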

With `Cc1nc(N2CCC3(CC2)COC(C)C3N)c(CO)nc1Sc1ccnc(N)c1Cl` (stereo not given) + Cc1c(S(C)(=O)=O)c(-c2cc(F)cc(N3CCN(c4ccc(NS(=O)(=O)c5ccc(NC(CCN6CCC(C(=O)OCCCP(=O)(O)O)CC6)CSc6ccccc6)c(S(=O)(=O)C(F)(F)F)c5)cc4)CC3)c2)c(-c2ccc(Cl)cc2)n1C(C)C the IC50 (second compound 0.1 µM) was 1560 nM, the IC50 (second compound 0.316 µM) was 625 nM and the IC50 (second compound 1 µM) was 594 nM. The IC50 (second compound 3.16 µM) was 829 nM, the IC50 (second compound 10 µM) was over 3000 nM and the viability, T/C (second compound 0.1 µM, first compound 0.00949 µM) was 98.7%. For the same compound, the viability, T/C (second compound 0.1 µM, first compound 0.03 µM) was 90.4%, the viability, T/C (second compound 0.1 µM, first compound 0.0949 µM) was 83.8% and the viability, T/C (second compound 0.1 µM, first compound 0.3 µM) was 65.8%. It also gave a viability, T/C (second compound 0.1 µM, first compound 0.949 µM) of 54.8%, a viability, T/C (second compound 0.1 µM, first compound 3 µM) of 44.5% and a viability, T/C (second compound 0.316 µM, first compound 0.00949 µM) of 94.9%. The viability, T/C (second compound 0.316 µM, first compound 0.03 µM) was 94.2%, the viability, T/C (second compound 0.316 µM, first compound 0.0949 µM) was 70.2% and the viability, T/C (second compound 0.316 µM, first compound 0.3 µM) was 59.5%. It also gave a viability, T/C (second compound 0.316 µM, first compound 0.949 µM) of 46.6%, a viability, T/C (second compound 0.316 µM, first compound 3 µM) of 38.9% and a viability, T/C (second compound 1 µM, first compound 0.00949 µM) of 95.3%. For the same compound, the viability, T/C (second compound 1 µM, first compound 0.03 µM) was 93.6%, the viability, T/C (second compound 1 µM, first compound 0.0949 µM) was 68.6% and the viability, T/C (second compound 1 µM, first compound 0.3 µM) was 58.4%. The viability, T/C (second compound 1 µM, first compound 0.949 µM) was 47.1%, the viability, T/C (second compound 1 µM, first compound 3 µM) was 38.3% and the viability, T/C (second compound 3.16 µM, first compound 0.00949 µM) was 98%. The viability, T/C (second compound 3.16 µM, first compound 0.03 µM) was 92%, the viability, T/C (second compound 3.16 µM, first compound 0.0949 µM) was 65.1% and the viability, T/C (second compound 3.16 µM, first compound 0.3 µM) was 64.6%. It also gave a viability, T/C (second compound 3.16 µM, first compound 0.949 µM) of 47%, a viability, T/C (second compound 3.16 µM, first compound 3 µM) of 42.5% and a viability, T/C (second compound 10 µM, first compound 0.00949 µM) of 179%. It also gave a viability, T/C (second compound 10 µM, first compound 0.03 µM) of 178%, a viability, T/C (second compound 10 µM, first compound 0.0949 µM) of 145% and a viability, T/C (second compound 10 µM, first compound 0.3 µM) of 142%. For the same compound, the viability, T/C (second compound 10 µM, first compound 0.949 µM) was 138% and the viability, T/C (second compound 10 µM, first compound 3 µM) was 117%.
